Data on 3 substances can be found in patent US10851132B2, “Protein based adhesive composition and method” (SEWON BIOTECHNOLOGY INC., priority 2015, dated 2020).

A short description of data set [1]: Affinity chromatography with heparin-agarose beads. The class given is binding. Conditions: Examples 11 and 12; FIG. 11, FIG. 12. Here is the method:
(§1) For chromatography, heparin-agarose beads (Biovision) and GlcNAc-agarose beads (Sigma) were used. 10 ng of FITC labelled peptide (F-peptide) was mixed in PBS-T buffer with heparin-agarose beads and GlcNAc-agarose beads, each precoated with BSA, and incubated at RT for 10 min. Then the mixture was washed 3 times with PBS-T buffer and resuspended in PBS for fluorescent measurement. For competitive binding experiments, the present peptide not labelled with FITC (Cold) was added to the mixture at various ratios of 1:1, 1:10 (10 times) and 1:100 (100 times) and allowed for incubation followed by fluorescent measurement. As a negative control, only FITC dyes were used to react with the beads. Further fluorescent signals from a sample containing just beads suspended in PBS were used as a blank.
(§2) The peptides as listed and described in Table 2 were synthesized as described in Example 1 and tested for its adhesiveness to heparin and N-Acetylglucosamine (GAG) according to the methods described in Example 5.

Data set [2] in a line: Affinity chromatography with GlcNAc-agarose beads. The class given is binding. Conditions: Examples 11 and 12; FIG. 11, FIG. 12. Here is the method:
as §1, §2

A further data set relates to MC3T3-E1. Nature of the data set: Comparative cell attachment experiment with soluble RGDs (CCK-8). The class given is cell-based, Mouse. Conditions: RGDs peptides used alone, 0-1000 μM; FIG. 4C. Here is the method:
The present peptide A7-1 (10 μM) or A7-1 together with soluble RGDs peptide (0, 10, 100 and 1000 μM) for competition assay were added to anchorage dependent cells MC3T3-E1 in a test tube and incubated for 10 min. Then the cells were transferred to a culture plate and incubated for 10 min in a thermostatic incubator to allow the cells to attach. After 10 min, the medium was removed and the cells were washed 2 times with PBS to remove any unattached cells and a fresh medium without the peptide and CCK-8 (Dojindo) were added to the cells and incubated for 1 hr in a thermostatic incubator. Then the absorbance was measured at 450 nm. The medium mixed with CCK-8 only was used as a blank.

The subject of a further data set is osteoblast MC3TC-E1. Nature of the data set: Safety in osteoblasts: proliferation, viability, differentiation. The class given is cell-based, Mouse. The note with it: 0.1, 1, 10 and 100 μM. Here is the method:
The safety of the present peptides was determined using osteoblast MC3TC-E1. Osteoblasts were treated with A7-1 peptide as prepared in Example 1 at the concentration of 0.1 μM, 1 μM, 10 μM and 100 μM. Then the effect of the present peptide on the proliferation (FIG. 8A), viability (FIG. 8B) and differentiation (FIG. 8C) on the cells was examined. For testing the effect on the […], MC3T3-E1 and C2C12 cell lines were treated with BMP (rhBMP2, 10 ng/ml for 3 days) and differentiation medium for bone formation for 6 days to induce differentiation. The results were examined by cell staining. It is observed that the present peptide has no effect on the proliferation rate, viability rate or whether or not the cells are differentiated.

Ends that are not written are not given here.

With KQLVVKFRALPC [SEQ ID NO: 21], the adhesiveness to heparin entry in data set [1] is reported as “working”. In data set [2], the “adhesiveness to N-Acetylglucosamine (GAG)” value was “working”.

As for “RGDs: soluble RGDs peptides used as a competitor; binds to adhesive molecule integrins (RGDS)”, the “adhesiveness of the cells” value with MC3T3-E1 was “decreased in a concentration dependent manner”.

RQLVVKFRALPC [A7-1]: the “effect on proliferation rate” value with osteoblast MC3TC-E1 (FIG. 8A) is listed as “no effect”. The “effect on viability rate” value in the data set on osteoblast MC3TC-E1 (FIG. 8B) is given as “no effect”. The “effect on whether or not the cells are differentiated” value in the data set on osteoblast MC3TC-E1 (FIG. 8C) was “no effect”.
